Measured values taken from patent publication US8501992B2, “Hydroxyphenyl sulfonamides as antiapoptotic bcl inhibitors” (Bristol-Myers Squibb Company, priority 2008, dated 2013).

Key:
Assay type in all cases: binding
[1] = biological target: T1, Bcl-2 (Homo sapiens, UniProt P10415); test: Bcl2/Bim fluorescence polarization assay (FPA); details: BIM BH3 peptide 5 nM, Bcl-2 11 nM, Ki calculated from FPA data
T1 construct: without their C-terminal transmembrane domain; GST; made in house
Description: (§1) Compounds were profiled for their ability to disrupt in vitro binding interactions in fluorescence polarization assays (FPAs) using synthetic fluorochrome-labeled Bcl homology 3 (BH3) peptides derived from BIM [(FAM)-Ahx-[…]-NH2 (SEQ ID NO: 1) (GenBank Accession No. O43521)] or BAK [Ac-GQVGRQLAIIGE-LYS(FAM)-INR-NH2 (SEQ ID NO:2) (GenBank Accession No. Q16611) amino acid sequences and four bacterial recombinant proteins [Bcl-b (GenBank Accession No. Q9HD36), Bcl-2 (GenBank Accession No. P10415), Bcl-Xl (GenBank Accession No. Q07817), Mcl-1 (GenBank Accession No. Q07820)] without their C-terminal transmembrane domain. Proteins were purified from bacterial lysates using their glutathione S-transferase (GST)-tag (Bcl-b, Bcl-2, Mcl-1) or His6-tag (Bcl-Xl) and following one-step affinity chromatography procedures. Dissociation constants (Kd) for peptide binding protein were determined by fluorescence polarization in FPAs measuring BIM BH3 peptide binding Bcl-b, Mcl-1 or Bcl-2 protein or BAK BH3 peptide binding Bcl-Xl protein. The Kd values were generated by fitting the experimental data using a sigmoidal dose-response nonlinear regression model.
(§2) Compound inhibitory concentration values, IC50 (50% reduction in fluorescence polarization), were determined using fluorochrome-labeled BH3 peptides and recombinant Bcl proteins in fluorescence polarization assays (FPAs). Compounds diluted in DMSO (0.5 ul) were transferred (in duplicate) to individual wells of a 384-well plate. The fluorochrome-labeled peptide was added followed by recombinant protein addition. Each binding FPA reaction (50 ul) contained BIM BH3 peptide (5 nM) or BAK BH3 peptide (1.5 nM) and Bcl-b (40 nM), Mcl-1 (28 nM), Bcl-2 (11 nM) or Bcl-Xl. (5 nM) protein suspended in assay buffer [20 mM sodium phosphate, pH 7.4, 1 mM EDTA, 50 mM NaCl., 0.05% Pluronic F68]. Reaction mixtures were incubated at ambient temperature for 60 minutes prior to measuring polarization (mP) using an Analyst (LJL, Molecular Devices, Sunnyvale, Calif.) programmed to detect an emission wavelength of 530 nm after excitation (excitation wavelength=485 nm).
(§3) Competitive compound inhibition constants (Ki) were calculated using FPA experimental data and a mathematical equation, Ki=[I]50/([L]50/Kd+[P]0/Kd+1), where [I]50 denotes free inhibitor concentration at 50% inhibition, [L]50 is free labeled ligand concentration at 50% inhibition, [P]0 is free protein concentration at 0% inhibition, and Kd is the dissociation constant of the protein-ligand complex.

[2] = biological target: T2, Mcl-1 (Homo sapiens, UniProt Q07820); test: Mcl-1/Bim fluorescence polarization assay (FPA); details: BIM BH3 peptide 5 nM, Mcl-1 28 nM, Ki calculated from FPA data
T2 construct: without their C-terminal transmembrane domain; GST; made in house
T2 sequence (Q07820 1-327 limits assumed): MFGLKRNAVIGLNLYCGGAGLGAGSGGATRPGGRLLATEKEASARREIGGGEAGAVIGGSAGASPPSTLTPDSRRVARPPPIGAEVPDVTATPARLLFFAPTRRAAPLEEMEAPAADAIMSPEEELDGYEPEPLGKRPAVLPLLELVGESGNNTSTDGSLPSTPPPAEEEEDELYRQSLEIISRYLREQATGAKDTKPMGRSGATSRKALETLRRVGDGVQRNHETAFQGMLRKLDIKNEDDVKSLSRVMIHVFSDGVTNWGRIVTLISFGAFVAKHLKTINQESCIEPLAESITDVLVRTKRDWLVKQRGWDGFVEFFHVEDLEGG
Description: as §1, §2, §3

[3] = biological target: T3, Bcl-b (Homo sapiens, UniProt Q9HD36); test: Bclb/Bim fluorescence polarization assay (FPA); details: BIM BH3 peptide 5 nM, Bcl-b 40 nM, Ki calculated from FPA data
T3 construct: without their C-terminal transmembrane domain; GST; made in house
T3 sequence (Q9HD36 1-182 limits assumed): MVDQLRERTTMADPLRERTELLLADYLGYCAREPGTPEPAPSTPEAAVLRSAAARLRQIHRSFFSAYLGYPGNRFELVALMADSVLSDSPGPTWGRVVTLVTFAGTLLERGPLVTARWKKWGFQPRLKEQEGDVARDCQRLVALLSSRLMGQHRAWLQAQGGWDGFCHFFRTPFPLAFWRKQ
Description: as §1, §2, §3

T1 sequence (P10415 1-211 limits assumed): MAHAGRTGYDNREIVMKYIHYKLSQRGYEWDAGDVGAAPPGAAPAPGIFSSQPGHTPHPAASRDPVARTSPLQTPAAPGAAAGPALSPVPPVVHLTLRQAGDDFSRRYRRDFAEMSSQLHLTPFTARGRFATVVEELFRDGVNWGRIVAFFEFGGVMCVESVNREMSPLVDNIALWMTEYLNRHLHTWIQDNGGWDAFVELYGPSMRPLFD

## CC(C)CN(Cc1ccc(CN(CC(C)C)S(=O)(=O)c2cc(Cl)cc(Cl)c2O)cc1)S(=O)(=O)c1cc(Cl)cc(Cl)c1O [Example 97, N-Isobutyl-N-{4-[(isobutyl-(3,5-dichloro-2-hydroxybenzene)sulfonyl-amino)-methyl]-benzyl}-(3,5-dichloro-2-hydroxybenzene)sulfonamide]
[1]
  Ki: 110 nM
[2]
  Ki: 100 nM
[3]
  Ki: 70 nM

## O=S(=O)(NCc1ccc(CN(Cc2ccc(F)cc2)S(=O)(=O)c2cc(Cl)cc(Cl)c2O)cc1)c1cc(Cl)cc(Cl)c1 [Example 98, 3,5-Dichloro-N-(4-((3,5-dichlorophenylsulfonamido)methyl)benzyl)-N-(4-fluorobenzyl)-2-hydroxybenzenesulfonamide]
[1]
  Ki: 230 nM
[2]
  Ki: 280 nM
[3]
  Ki: 160 nM

## O=C(c1ccc(CN(Cc2ccc(F)cc2)S(=O)(=O)c2cc(Cl)cc(Cl)c2O)cc1)N(Cc1ccc(F)cc1)Cc1cc(Cl)cc(Cl)c1 [Example 106, 4-((3,5-Dichloro-N-(4-fluorobenzyl)-2-hydroxyphenylsulfonamido)methyl)-N-(3,5-dichlorobenzyl)-N-(4-fluorobenzyl)benzamide]
[1]
  Ki: 40 nM
[2]
  Ki: 40 nM
[3]
  Ki: 40 nM

## CC(C)N(Cc1ccccc1)C(=O)c1ccc(CN(Cc2ccc(F)cc2)S(=O)(=O)c2cc(Cl)cc(Cl)c2O)cc1 [Example 107, N-Benzyl-4-((3,5-dichloro-N-(4-fluorobenzyl)-2-hydroxyphenylsulfonamido)methyl)-N-isopropylbenzamide]
[1]
  Ki: 480 nM
[2]
  Ki: 520 nM
[3]
  Ki: 210 nM

## O=C(c1ccc(CN(Cc2ccc(F)cc2)S(=O)(=O)c2cc(Cl)cc(Cl)c2O)cc1)N1CCCCC1 [Example 130]
[1]
  Ki: 840 nM
[2]
  Ki: 2060 nM
[3]
  Ki: 440 nM

## CC(C)CCNC(=O)c1ccc(CN(Cc2ccc(F)cc2)S(=O)(=O)c2cc(Cl)cc(Cl)c2O)cc1 [Example 135, 4-((3,5-Dichloro-N-(4-fluorobenzyl)-2-hydroxyphenylsulfonamido)methyl)-N-isopentylbenzamide]
[1]
  Ki: 610 nM
[2]
  Ki: 490 nM
[3]
  Ki: 280 nM

## CN(CCc1ccccc1)C(=O)c1ccc(CN(Cc2ccc(F)cc2)S(=O)(=O)c2cc(Cl)cc(Cl)c2O)cc1 [Example 137, 4-((3,5-Dichloro-N-(4-fluorobenzyl)-2-hydroxyphenylsulfonamido)methyl)-N-methyl-N-phenethylbenzamide]
[1]
  Ki: 250 nM
[2]
  Ki: 480 nM
[3]
  Ki: 220 nM

## CCCCNC(=O)c1ccc(CN(Cc2ccc(F)cc2)S(=O)(=O)c2cc(Cl)cc(Cl)c2O)cc1 [Example 138, N-Butyl-4-((3,5-dichloro-N-(4-fluorobenzyl)-2-hydroxyphenylsulfonamido)methyl)-benzamide]
[1]
  Ki: 820 nM
[2]
  Ki: 1760 nM
[3]
  Ki: 450 nM

## O=C(c1ccc(CN(Cc2ccc(F)cc2)S(=O)(=O)c2cc(Cl)cc(Cl)c2O)cc1)N1CCN(c2cnccn2)CC1 [Example 140, 3,5-Dichloro-N-(4-fluorobenzyl)-2-hydroxy-N-(4-(4-(pyrazin-2-yl)piperazine-1-carbonyl)benzyl)benzenesulfonamide]
[1]
  Ki: 660 nM
[2]
  Ki: 1730 nM
[3]
  Ki: 500 nM

## O=C(N[C@H]1C[C@@H]1c1ccccc1)c1ccc(CN(Cc2ccc(F)cc2)S(=O)(=O)c2cc(Cl)cc(Cl)c2O)cc1 [Example 143, 4-((3,5-Dichloro-N-(4-fluorobenzyl)-2-hydroxyphenylsulfonamido)methyl)-N-((1S,2R)-2-phenylcyclopropyl)benzamide]
[1]
  Ki: 370 nM
[2]
  Ki: 450 nM
[3]
  Ki: 170 nM

## NS(=O)(=O)c1ccc(CNC(=O)c2ccc(CN(Cc3ccc(F)cc3)S(=O)(=O)c3cc(Cl)cc(Cl)c3O)cc2)cc1 [Example 147, 4-((3,5-Dichloro-N-(4-fluorobenzyl)-2-hydroxyphenylsulfonamido)methyl)-N-(4-sulfamoylbenzyl)benzamide]
[1]
  Ki: 960 nM
[2]
  Ki: 1730 nM
[3]
  Ki: 450 nM

## CN(C)c1ccc(CNC(=O)c2ccc(CN(Cc3ccc(F)cc3)S(=O)(=O)c3cc(Cl)cc(Cl)c3O)cc2)cc1 [Example 150, 4-((3,5-Dichloro-N-(4-fluorobenzyl)-2-hydroxyphenylsulfonamido)methyl)-N-(4-(dimethylamino)benzyl)benzamide]
[1]
  Ki: 440 nM
[2]
  Ki: 460 nM
[3]
  Ki: 200 nM

## O=C(c1ccc(N(Cc2ccc(F)cc2)S(=O)(=O)c2cc(Cl)cc(Cl)c2O)cc1)N(Cc1ccc(F)cc1)Cc1cc(Cl)cc(Cl)c1 [Example 175, 4-(3,5-Dichloro-N-(4-fluorobenzyl)-2-hydroxyphenylsulfonamido)-N-(3,5-dichlorobenzyl)-N-(4-fluorobenzyl)benzamide]
[1]
  Ki: 40 nM
[2]
  Ki: 30 nM
[3]
  Ki: 60 nM

## O=S(=O)(c1cc(Cl)cc(Cl)c1)N(CCO)Cc1ccc(CN(Cc2ccc(F)cc2)S(=O)(=O)c2cc(Cl)cc(Cl)c2O)cc1 [Example 176]
[1]
  Ki: 440 nM
[2]
  Ki: 480 nM
[3]
  Ki: 180 nM

## CC(C)CN(Cc1cccc(CN(Cc2ccc(-c3ccc(F)cc3)cc2)S(=O)(=O)c2cc(Cl)cc(Cl)c2O)c1)C(=O)c1ccc2[nH]c(=O)c(=O)[nH]c2c1 [Example 190, N-(3-((3,5-Dichloro-N-((4′-fluorobiphenyl-4-yl)methyl)-2-hydroxyphenylsulfonamido)methyl)-benzyl)-N-isobutyl-2,3-dioxo-1,2,3,4-tetrahydroquinoxaline-6-carboxamide]
[1]
  Ki: 180 nM
[2]
  Ki: 550 nM
[3]
  Ki: 150 nM

## CC(C)CN(Cc1cccc(CN(Cc2ccc(-c3ccc(F)cc3)cc2)S(=O)(=O)c2cc(Cl)cc(Cl)c2O)c1)C(=O)c1nc2ccccc2s1 [Example 191, N-(3-((3,5-Dichloro-N-((4′-fluorobiphenyl-4-yl)methyl)-2-hydroxyphenylsulfonamido)methyl)-benzyl)-N-isobutylbenzo[d]thiazole-2-carboxamide]
[1]
  Ki: 110 nM
[2]
  Ki: 530 nM
[3]
  Ki: 180 nM

## CC(C)NC(=O)c1cc(Cl)c(O)c(S(=O)(=O)N(Cc2ccc(F)cc2)Cc2cccc(-c3ccc(Cl)cc3)c2)c1 [Example 211, 3-Chloro-5-(N-((4′-chlorobiphenyl-3-yl)methyl)-N-(4-fluorobenzyl)-sulfamoyl)-4-hydroxy-N-isopropylbenzamide]
[1]
  Ki: 480 nM
[2]
  Ki: 530 nM
[3]
  Ki: 160 nM

## O=C(NCCCO)c1cc(Cl)c(O)c(S(=O)(=O)N(Cc2ccc(F)cc2)Cc2cccc(-c3ccc(Cl)cc3)c2)c1 [Example 213, 3-Chloro-5-(N-((4′-chlorobiphenyl-3-yl)methyl)-N-(4-fluorobenzyl)-sulfamoyl)-4-hydroxy-N-(3-hydroxypropyl)benzamide]
[1]
  Ki: 1220 nM
[2]
  Ki: 2700 nM
[3]
  Ki: 470 nM

## O=C(NCC(O)CO)c1cc(Cl)c(O)c(S(=O)(=O)N(Cc2ccc(F)cc2)Cc2cccc(-c3ccc(Cl)cc3)c2)c1 (stereo not drawn) [Example 214, 3-Chloro-5-(N-((4′-chlorobiphenyl-3-yl)methyl)-N-(4-fluorobenzyl)-sulfamoyl)-N-(2,3-dihydroxypropyl)-4-hydroxybenzamide]
[1]
  Ki: 1800 nM
[2]
  Ki: 1640 nM
[3]
  Ki: 610 nM

## O=C(NCc1ccccc1)c1cc(Cl)c(O)c(S(=O)(=O)N(Cc2ccc(F)cc2)Cc2ccc(Oc3ccc(C(F)(F)F)cc3)cc2)c1 [Example 219, N-Benzyl-3-chloro-5-(N-(4-fluoro-benzyl)-N-(4-(4-(trifluoromethyl)-phenoxy)benzyl)sulfamoyl)-4-hydroxybenzamide]
[1]
  Ki: 170 nM
[2]
  Ki: 40 nM
[3]
  Ki: 120 nM

## COc1c(Cl)cc(CN(CCn2ccc3ccccc32)S(=O)(=O)c2cc(C(=O)NCc3ccccc3)cc(Cl)c2O)cc1-c1ccc(Cl)cc1 [Example 222, 3-(N-(2-(1H-Indol-1-yl)ethyl)-N-((4′,5-dichloro-6-methoxybiphenyl-3-yl)methyl)sulfamoyl)-N-benzyl-5-chloro-4-hydroxybenzamide]
[1]
  Ki: 170 nM
[2]
  Ki: 30 nM
[3]
  Ki: 30 nM
